Values of other authors as cited in PMC7904743, “WIDOCK: a reactive docking protocol for virtual screening of covalent inhibitors” (Journal of Computer-Aided Molecular Design, 2021).
Like-named read-outs stand apart in the source and are kept apart here.

What was measured:
[1] = thiol reactivity, cited from earlier work
OTUB2 = conditions: experimental actives if % labeling higher than 50%; cited from earlier work
NUDT7 = conditions: protein labeling at 200 μM; experimental actives if % labeling higher than 50%; cited from earlier work
[2] = natural log of average rate constant k
[3] = natural logarithm of average rate constant

| SMILES | ln(avg k) [1, 2] | ln(avg k) [1, 3] | OTUB2 % labeling (OTUB2) [%] | NUDT7 % labeling (NUDT7) [%] |
| --- | --- | --- | --- | --- |
| O=C(CCl)Nc1nc(-c2c[nH]c3ccccc23)cs1 [PCM-0102233, O=C(CCl)Nc1nc(-c2c[nH]c3ccccc23)cs1] | -15.707 | -15.707 | 25 | 26 |
| COc1ccccc1NC(=O)CCl [PCM-0102236, COc1ccccc1NC(=O)CCl] | -16.359 | -16.359 | 28 | 0 |
| O=C(CCl)N1CCN(S(=O)(=O)c2ccc(F)cc2)CC1 [PCM-0102237, O=C(CCl)N1CCN(S(=O)(=O)c2ccc(F)cc2)CC1] | -16.014 | -16.014 | 0 | 6 |
| O=C(CCl)Nc1ccc(F)c([N+](=O)[O-])c1 [PCM-0102238, O=C(CCl)Nc1ccc(F)c([N+](=O)[O-])c1] | -15.369 | -15.369 | 32 | 23 |
| O=C(CCl)N1CCN(c2cccc(C(F)(F)F)c2)CC1 [PCM-0102239, O=C(CCl)N1CCN(c2cccc(C(F)(F)F)c2)CC1] | -15.673 | -15.673 | 0 | 8 |
| O=C(CCl)N1CCN(S(=O)(=O)c2cccs2)CC1 [PCM-0102241, O=C(CCl)N1CCN(S(=O)(=O)c2cccs2)CC1] | -15.262 | -15.262 | 0 | 12 |
| O=C(CCl)Nc1nccs1 [PCM-0102242, O=C(CCl)Nc1nccs1] | -16.213 | -16.213 | 0 | 0 |
| O=C(CCl)N1CCN(Cc2cccs2)CC1 [PCM-0102243, O=C(CCl)N1CCN(Cc2cccs2)CC1] | -15.851 | -15.851 | 0 | 8 |
| NC(=O)C1CN(C(=O)CCl)c2ccccc2O1 (stereo not drawn) [PCM-0102245, NC(=O)C1CN(C(=O)CCl)c2ccccc2O1] | -15.513 | -15.513 | 15 | 12 |
| O=C(CCl)Nc1cc(F)ccc1C(=O)O [PCM-0102247, O=C(CCl)Nc1cc(F)ccc1C(=O)O] | -16.882 | -16.882 | 0 | 0 |
| Cc1ccc(C)c(-n2nc(C)cc2NC(=O)CCl)c1 [PCM-0102249, Cc1ccc(C)c(-n2nc(C)cc2NC(=O)CCl)c1] | -15.689 | -15.689 | 43 | 0 |
| O=C(CCl)NC1CCCC1 [PCM-0102250, O=C(CCl)NC1CCCC1] | -16.419 | -16.419 | 0 | 0 |
| CC1CCC(C#N)(N(C)C(=O)CCl)CC1 (stereo not drawn) [PCM-0102251, CC1CCC(C#N)(N(C)C(=O)CCl)CC1] | -15.448 | -15.448 | 0 | 5 |
| N#Cc1oc2ccccc2c1NC(=O)CCl [PCM-0102252, N#Cc1oc2ccccc2c1NC(=O)CCl] | -15.605 | -15.605 | 86 | 37 |
| COc1ccc(N2CCN(C(=O)CCl)CC2)cc1 [PCM-0102254, COc1ccc(N2CCN(C(=O)CCl)CC2)cc1] | -15.625 | -15.625 | 0 | 0 |
| CCOC(=O)N1CCC(NC(=O)CCl)CC1 [PCM-0102255, CCOC(=O)N1CCC(NC(=O)CCl)CC1] | -15.985 | -15.985 | 24 | 0 |
| CC(NC(=O)CCl)c1ccccc1Br (stereo not drawn) [PCM-0102256, CC(NC(=O)CCl)c1ccccc1Br] | -16.021 | -16.021 | 29 | 19 |
| O=C(CCl)N1CCN(C(=O)Nc2ccccc2)CC1 [PCM-0102257, O=C(CCl)N1CCN(C(=O)Nc2ccccc2)CC1] | -15.051 | -15.051 | 0 | 7 |
| O=C(CCl)Nc1cc(Cl)ccc1-n1cncn1 [PCM-0102258, O=C(CCl)Nc1cc(Cl)ccc1-n1cncn1] | -15.839 | -15.839 | 0 | 21 |
| CN(CC(=O)NC(C)(C)C)C(=O)CCl [PCM-0102259, CN(CC(=O)NC(C)(C)C)C(=O)CCl] | -16.044 | -16.044 | 0 | 0 |
| Cc1c(C#N)c(NC(=O)CCl)n(-c2ccccc2)c1C [PCM-0102261, Cc1c(C#N)c(NC(=O)CCl)n(-c2ccccc2)c1C] | -16.038 | -16.038 | 9 | 30 |

| SMILES | ln(avg k) [1, 2] | ln(avg k) [1, 3] | OTUB2 % labeling (OTUB2) [%] | NUDT7 % labeling (NUDT7) [%] |
| --- | --- | --- | --- | --- |
| Cc1nc(-c2cccc(NC(=O)CCl)c2)cs1 [PCM-0102262, Cc1nc(-c2cccc(NC(=O)CCl)c2)cs1] | -15.670 | -15.670 | 63 | 0 |
| CC(C)C(C#N)N1CCN(C(=O)CCl)CC1 (stereo not drawn) [PCM-0102263, CC(C)C(C#N)N1CCN(C(=O)CCl)CC1] | -14.716 | -14.716 | 31 | 17 |
| Cc1csc(N(C(=O)CCl)c2ccccc2)n1 [PCM-0102265, Cc1csc(N(C(=O)CCl)c2ccccc2)n1] | -15.232 | -15.232 | 6 | 19 |
| O=C(CCl)N1c2ccccc2OCC1c1ccccc1 (stereo not drawn) [PCM-0102266, O=C(CCl)N1c2ccccc2OCC1c1ccccc1] | -16.335 | -16.335 | 0 | 11 |
| CNC(=O)c1ccc(NC(=O)CCl)cc1 [PCM-0102267, CNC(=O)c1ccc(NC(=O)CCl)cc1] | -15.048 | -15.048 | 0 | 0 |
| O=C(CCl)N1CCN(Cc2cccc(Cl)c2)CC1 [PCM-0102269, O=C(CCl)N1CCN(Cc2cccc(Cl)c2)CC1] | -15.481 | -15.481 | 19 | 0 |
| Cc1ccc(C(C)NC(=O)CCl)cc1C (stereo not drawn) [PCM-0102270, Cc1ccc(C(C)NC(=O)CCl)cc1C] | -16.558 | -16.558 | 51 | 0 |
| CC(C)N(C(=O)CCl)c1ccccc1 [PCM-0102272, CC(C)N(C(=O)CCl)c1ccccc1] | -15.780 | -15.780 | 0 | 22 |
| CC(=O)c1ccc(N2CCN(C(=O)CCl)CC2)c(F)c1 [PCM-0102273, CC(=O)c1ccc(N2CCN(C(=O)CCl)CC2)c(F)c1] | -15.374 | -15.374 | 0 | 20 |
| O=C(CCl)Nc1cccnc1Cl [PCM-0102274, O=C(CCl)Nc1cccnc1Cl] | -16.315 | -16.315 | 0 | 0 |
| CC(NC(=O)CCl)c1cccc2ccccc12 (stereo not drawn) [PCM-0102275, CC(NC(=O)CCl)c1cccc2ccccc12] | -16.435 | -16.435 | 73 | 32 |
| O=C(CCl)Nc1ccc(OC(F)(F)F)cc1 [PCM-0102276, O=C(CCl)Nc1ccc(OC(F)(F)F)cc1] | -15.893 | -15.893 | 36 | 24 |
| O=C(CCl)N1CCN(Cc2ccc(Cl)s2)CC1 [PCM-0102277, O=C(CCl)N1CCN(Cc2ccc(Cl)s2)CC1] | -15.648 | -15.648 | 9 | 0 |
| O=C(CCl)Nc1ccc(I)cc1 [PCM-0102278, O=C(CCl)Nc1ccc(I)cc1] | -15.784 | -15.784 | 24 | 9 |
| CNC(=O)CNC(=O)CCl [PCM-0102279, CNC(=O)CNC(=O)CCl] | -16.473 | -16.473 | 10 | 0 |
| O=C(CCl)NCc1cccs1 [PCM-0102280, O=C(CCl)NCc1cccs1] | -16.889 | -16.889 | 22 | 0 |
| O=C(CCl)N1CCN(S(=O)(=O)c2ccccc2F)CC1 [PCM-0102281, O=C(CCl)N1CCN(S(=O)(=O)c2ccccc2F)CC1] | -15.235 | -15.235 | 0 | 14 |
| CC(=O)c1ccccc1NC(=O)CCl [PCM-0102282, CC(=O)c1ccccc1NC(=O)CCl] | -16.331 | -16.331 | 0 | 0 |
| CC(=O)c1cccc(N2Cc3ccccc3C2=NC(=O)CCl)c1 [PCM-0102283, CC(=O)c1cccc(N2Cc3ccccc3C2=NC(=O)CCl)c1] | -16.303 | -16.303 | 0 | 0 |
| O=C(CCl)Nc1cc(F)ccc1F [PCM-0102284, O=C(CCl)Nc1cc(F)ccc1F] | -15.941 | -15.941 | 28 | 0 |
| CN(C)S(=O)(=O)c1ccc2c(c1)CCCN2C(=O)CCl [PCM-0102285, CN(C)S(=O)(=O)c1ccc2c(c1)CCCN2C(=O)CCl] | -15.789 | -15.789 | 0 | 0 |
